From patent US9258995B2, “Organ cold storage composition and methods of use” (BOARD OF TRUSTEES OF THE UNIVERSITY OF ARKANSAS, priority 2009, dated 2016)

Columns and labels:
rat kidneys = experiment: Nitrotyrosine immunohistochemistry during CS; settings: 4 h CS, 100 μM
Experimental: All animals were treated according to the National Institutes of Health Guide for the Care and Use of Laboratory Animals and the University of Arkansas for Medical Sciences Institutional Animal Care and Use Committee guidelines. Male Fischer 344 inbred rats (Charles Rivers Laboratories, Inc., Wilmington, Mass.) weighing between 250 and 300 g were anesthetized with ethrane, followed by shaving and prepping with betadine. […] Bulldog clamps were placed on the aorta and vena cava (proximal and distal to the renal vessels) to prevent blood flow to the kidneys. A 22-gauge surgical needle was used to puncture the rat's aorta to flush the renal grafts with saline (10 ml per kidney) using a small catheter. Once the kidneys started to turn light brown (perfusion), another vent was formed in the vena cava to allow blood flow from the kidneys. […]
NRK cells (groups 1-4) were assessed for nitrotyrosine formation as previously described. […] Nitrotyrosine staining was evaluated and captured with equal exposure times using a Nikon Eclipse 800 microscope (40×oil). Images were quantified by averaging the mean intensity fluorescence of five random cells in three different fields using Nikon N is Elements software. Renal tissue sections were assessed for the presence of nitrotyrosine protein adducts by nitrotyrosine immunohistochemistry. […]

NRK cells [1] = experiment: LDH cytotoxicity assay, CS and CS plus rewarming; assay type: cell-based; settings: 1 μM
Experimental: Normal rat kidney proximal tubular cells (NRK-52E; American Type Culture Collection, Manassas, Va.) were maintained in six-well 100 or 150-mm, or 150-mm plates in a humidified incubator gassed with 5% CO2 and 95% air at 37° C. in DMEM (Invitrogen, Carlsbad, Calif.) containing 5% fetal calf serum (FCS). Cells were grown to 60% confluence and divided into four treatment groups: 1) untreated (Untx), 2) CS, 3) CS+MitoQ, and 4) CS+DecylTPP. Untreated cells remained at 37° C. in DMEM containing 5% FCS (group 1). CS was initiated by washing cells with cold PBS (Invitrogen) twice and storing them in UW/Viaspan solution alone (4 h at 4° C.) (group 2), CS+MitoQ (1 μM) (group 3), or CS+DecylTPP (1 μM) (group 4). In separate experiments, cells were exposed to CS plus RW by replacing UW solution alone or UW solution containing MitoQ or DecylTPP with DMEM containing 5% FCS overnight (18 h at 37° C.).
Cell cytotoxicity was determined using the LDH-Cytotoxicity Assay Kit II (Biovision Research Products, Mountain View, Calif.) according to the manufacturer's instructions. Absorbance was measured at 450 nm using a SpectraMax 190 microplate reader and SpectraMax software (Molecular Devices, Sunnyvale, Calif.). Renal cell death was determined using TUNEL staining. Kidney sections were deparaffinized, rehydrated, and exposed to antigen retrieval (20-min incubation at 95° C. with 10 mM sodium citrate buffer, pH 6.0) followed by washing with distilled water and quenching of endogenous peroxidase. Sections were immersed in TdT labeling buffer and then incubated in a humidified chamber with the labeling reaction mix from the TAGS 2 TdT-DAB In Situ Apoptosis Detection kit (Trevigen, Inc., Gaithersburg, Md.) for 1 h at room temperature. The reaction was stopped with TdT stop buffer, and slides were subsequently washed with PBS. Sections were incubated for 10 min with streptavidin-HRP followed by development with diaminobenzidine solution, counterstaining with Mayer's hematoxylin, dehydration, and mounting with Cytoseal-60. The amount of cell death was calculated by averaging the number of cells positive for TUNEL (brown staining) in 10 different fields (cortex and medulla) (20×). All images were taken at equal exposure times (40×oil).

[2] = two phase II clinical trials for Parkinson's disease and hepatitis C virus; cited from earlier work
NRK cells [3] = experiment: Available nitric-oxide levels, CS NRK cell model; assay type: cell-based, rat; settings: 4-h CS (data not shown)
Text: Nitric oxide is a free radical that is well known to interact with superoxide to form peroxynitrite. It is generated by nitric-oxide synthase (NOS) and is an important signaling molecule in many physiological processes. Few reports have evaluated the effect of cold ischemia alone on NOS protein levels or activity.

[4] = system: porcine renal mitochondrial respiratory complex IV; experiment: Mitochondrial respiratory complex activity, porcine ex vivo renal model
Experimental: (§1) FIG. 15 depicts graphs showing activities or (A) porcine renal mitochondrial respiratory complex I, (B) activities or porcine renal mitochondrial respiratory complex II/III, and (C) activities or porcine renal mitochondrial respiratory complex IV, after MitoQ treatment. MitoQ ([…]) protected porcine complex II/III following 24 hr cold preservation. Values are expressed as mean SEM (n=4).
(§2) Mitochondrial respiratory complex activity was also evaluated in the porcine ex vivo renal model at 24-h and 48-h CS. […] Protection of Complex II/III by MitoQ (100 μM) was significant following 24-h cold preservation.

[5] = system: porcine renal mitochondrial respiratory complex I; experiment: as above
Experimental: as §1, §2

[6] = system: porcine renal mitochondrial respiratory complex II/III; experiment: as above; parameters: protection of porcine complex II/III: dose or concentration left out as unconfirmed
Experimental: as §1, §2

COC1=C(OC)C(=O)C(CCCCCCCCCC[P+](c2ccccc2)(c2ccccc2)c2ccccc2)=C(C)C1=O [MitoQ, mitoquinone]
nitrotyrosine formation (immunohistochemistry) (rat kidneys): less nitrotyrosine formation
decrease of cell death (LDH cytotoxicity) (NRK cells [1]; CS alone): approximately 2 fold
decrease of cell death (LDH cytotoxicity) (NRK cells [1]; CS.RW): approximately 2 fold
safety and tolerability [2]: safe and well tolerated
available nitric-oxide levels (NRK cells [3]): no effect
protection of Complex IV activity, 24-h versus 48-h CS [4]: at 24-h better than at 48-h
protection of Complex I activity, 24-h versus 48-h CS [5]: at 24-h better than at 48-h
protection of Complex II/III activity, 24-h versus 48-h CS ([6]; porcine ex vivo renal model): at 24-h better than at 48-h
Protection of Complex II/III ([6]; porcine kidneys, 24-h cold preservation, MitoQ (100 μM)): significant
protection of porcine complex II/III ([6]; porcine kidneys, 24 hr cold preservation): protected
